experiment: gradient 5% acetonitrile 3 min, to 50% in 2 min, to 85% in 15 min, held 3 min, 100 µL/min; details: column: Zorbax Extend-C18 2.1 x 50 mm; eluents: water / acetonitrile, 0.1% formic acid
Outline: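 Pure standards were analyzed in mixtures of ~100 molecules using HPLC coupled to a quadrupole time-of-flight mass spectrometer, in both positive and negative ionization mode. Separation used a Zorbax Extend-C18 column (2.1 × 50 mm, 1.8 μm) at 100 μL/min, with water and acetonitrile each containing 0.1% formic acid. Dead and dwell volumes were 40 μL and 900 μL, and data were collected over 3 months. Retention time was read from computationally picked adduct peaks, each inspected manually.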

Structure (SMILES)	RP-LC retention time
O=S(=O)(CCc1noc(-c2ccc3c(c2)OCO3)n1)c1ccccc1	899 s
COc1ccc(OC)c(CNC(=O)Cn2cc(-c3nnco3)c3ccccc32)c1	765 s
Cc1nc(-c2ccccc2Cl)sc1C(=O)NCCc1c[nH]c2ccccc12	1020 s
CC(C)C(=O)Nc1ccc(C(=O)Nc2nc(-c3ccccc3)cs2)cc1	949 s
COc1ccccc1NC(=O)C1CCCN(S(=O)(=O)c2cc(-c3noc(C)n3)cs2)C1 (stereo not drawn)	964 s
COc1cc(-c2nc3ccc(Cl)cn3c2Nc2ccc3c(c2)OCCO3)ccc1O	680 s
CCOCCCNC(=O)N1CCN(c2nnc(C)c3c(C)n(-c4ccc(C)cc4)nc23)CC1	669 s
CCCCOc1ccc(C(=O)N2CCN(c3cc(C)nc(N4CCOCC4)n3)CC2)cc1	720 s
CCCCN1CCN(C(=O)c2cn(-c3cc(N4CCSCC4)ncn3)cn2)CC1	639 s
COc1ccc2c(c1)C1(CCN(C(=O)c3ccc(Cl)cc3)C1)C(=O)N2 (stereo not drawn)	767 s
CCOc1ccc(C(=O)N2CCc3nc(-c4ccc(OC)cc4)ncc3C2)cc1	962 s
O=C(c1cccc(-n2cnnn2)c1)N1CCN(Cc2nc3ccccc3[nH]2)CC1	543 s
CC(=O)Nc1cccc2c(C(=O)N3CCN(c4cccc(Cl)c4)CC3)ccnc12	920 s
CN(C)CCNC(=O)C1CCc2sc(C(=O)N3CCOCC3)cc2C1 (stereo not drawn)	551 s
Cc1cc(=O)n(CC(=O)Nc2cccc(C)c2C)c(N)n1	600 s
Cc1cccc(-c2csc3c(=O)n(Cc4cc(=O)n5ccccc5n4)cnc23)c1	831 s
CCOC(=O)c1cccc(NC(=O)C2CCCN(c3ccc(=O)n(-c4ccc(F)cc4)n3)C2)c1 (stereo not drawn)	933 s
O=C(NCCc1ccco1)c1ccc2ccnc(N3CCN(c4ccc(Cl)cc4)CC3)c2c1	887 s
COc1ccc(S(=O)(=O)N2CCC(n3cnnc3C(C)C)CC2)cc1	694 s
Cn1ncc2c(N3CCOCC3)nc(C(=O)NCCc3cccs3)nc21	710 s
Cc1csc(-c2cc(S(=O)(=O)NCCc3ccc(S(N)(=O)=O)cc3)c(C)n2C)n1	769 s
CCOc1nc2ccccc2nc1N1CCCC(C(=O)Nc2ccc(NC(C)=O)cc2)C1 (stereo not drawn)	908 s

Structure (SMILES)	RP-LC retention time
CC(=O)N(C)Cc1nc2ccccc2n1CC(=O)N1CCCC1	581 s
O=C(Cc1cccc(F)c1)N1CCC2(CC1)Nc1ccccc1-n1cccc12	998 s
COC(=O)C(NC(=O)N1CCCn2nc(-c3ccncc3)cc2C1)c1ccccc1 (stereo not drawn)	606 s
CC(NC(=O)c1ccco1)C(=O)NCc1nn(C(C)C)c2ccccc12 (stereo not drawn)	712 s
COC(=O)C(C)n1cc(-c2nc(-c3ccc(Cl)cc3)no2)ccc1=O (stereo not drawn)	950 s
Cc1cc(NC(=O)Cn2cc3c(n2)CCCCC3)ccc1Br	1030 s
O=C(c1cccs1)N1N=C(c2cccs2)CC1c1cc([N+](=O)[O-])ccc1O (stereo not drawn)	876 s
CCc1nc(-c2csc(S(=O)(=O)N3CCCC(C(=O)Nc4cc(C)cc(C)c4)C3)c2)no1 (stereo not drawn)	1090 s
CCc1nncn1C1CCN(S(=O)(=O)c2ccc(F)cc2)CC1	676 s
Cc1ccc(-c2nc(N)n(S(=O)(=O)c3ccc(C)cc3)n2)cc1	969 s
CSc1nnc(C)c(=O)n1COC(=O)c1cc(C(F)(F)F)cc(C(F)(F)F)c1	932 s
Cc1ccc(CNc2c(-c3ccc(C)cc3)nc3ncccn23)cc1	812 s
O=C(Cn1cccc1-c1nnc(C2CCC2)o1)N1CCc2ccccc2C1	915 s
CN1C(=O)COc2ccc(-c3csc(NC(=O)C(C)(C)C)n3)cc21	856 s
O=C(NCC1CC1)[C@@H]1OCCN(C2CC2)[C@H]1c1ccccc1	612 s
O=C(CCc1nc(-c2ccc(N3CCCC3)cc2)no1)N1CCN(c2ccc(Cl)cc2)CC1	1240 s
COc1ccc(CNS(=O)(=O)c2cn(C(C)C)c3ncccc23)cc1	841 s
COc1ccc(-c2nc3cnccn3c2NCCC(=O)Nc2ccc3c(c2)OCO3)cc1	673 s
O=S(=O)(c1ccc(F)c(Cl)c1)N1CC(F)(F)C[C@H]1CN1CCc2ccccc2C1	791 s
COc1ccccc1N1CCN(c2cc(SCC(=O)Nc3cccc(Cl)c3C)ncn2)CC1	1110 s
Cc1cc(C)cc(N2CCC(NC(=O)c3ccsc3)C2=O)c1 (stereo not drawn)	815 s
COc1ccc(Cl)cc1NC(=O)NC1CCCCC1N1C(=O)CSC1=O (stereo not drawn)	870 s

Structure (SMILES)	RP-LC retention time
Cc1cc2n(n1)CCC(=O)N2CCCC(=O)NC1CCCCC1	661 s
CCN1C(=O)COc2ccc(-c3csc(NC(=O)CCc4ccccc4)n3)cc21	664 s
CCOc1cc(C)c(C)cc1S(=O)(=O)n1cc(C)nc1CC	712 s
Cc1cccc(-n2c(=O)c3sccc3n(Cc3nc(-c4ccc(C(F)(F)F)cc4)no3)c2=O)c1	1120 s
CCCNC(=O)c1cn(-c2ccc(-c3nc(C(C)C)no3)cn2)cn1	847 s
COc1cc(OC)cc(C(=O)N2CCN(c3cc(-c4cccnc4)[nH]n3)CC2)c1	570 s
Cc1c(Cl)cccc1NC(=O)NCC(c1cccnc1)c1cn(C)c2ccccc12 (stereo not drawn)	773 s
O=C(Nc1nnc2n1CCS2)c1c(F)cccc1F	584 s
CC(NC(=O)C1CCN(c2cncnc2N2CCCCC2)CC1)c1ccc(F)cc1 (stereo not drawn)	715 s
CC(=O)N[C@@H]1CN(C(=O)Cc2ccccc2Br)C[C@H]1CO	610 s
O=C(CCc1nc(-c2ccc(N3CCCC3)cc2)no1)Nc1ccc(Br)cc1F	1220 s
COCCCNC(=O)CCc1c(-c2ccc(F)cc2)nc2ccccn12	592 s
Cn1c(=O)c2c(NC(=O)c3ccco3)ccnc2n(C)c1=O	757 s
O=C(NCCCN1CCCC1)c1ccc2nc(Cc3ccccc3)oc2c1	642 s
Cc1noc(C2(NC(=O)Nc3cccc(Cl)c3C)CCCCC2)n1	872 s
CCOC(=O)C1CCCN(C(=O)c2ccc(SCCN3CCCCC3)nc2)C1 (stereo not drawn)	629 s
O=C(Nc1ccc(F)cc1)N1CCCC1c1nc(-c2ccccc2)no1 (stereo not drawn)	947 s
Cc1ccc2c(Nc3ccc(C)c(F)c3)c(C(=O)N3CCSCC3)cnc2n1	642 s
Cn1nc2n(c1=O)CCN(S(=O)(=O)c1cccc3cccnc13)CC2	649 s
CCc1nc(-c2csc(S(=O)(=O)N3CCCC(C(=O)Nc4ccc(Cl)cc4F)C3)c2)no1 (stereo not drawn)	1150 s
Cc1ccc(NC(=O)Cn2cnc3nc(N4CCCC(C(=O)NC(C)C)C4)sc3c2=O)cc1F (stereo not drawn)	739 s
Cc1ccc(S(=O)(=O)N2C[C@H]3CN(C(=O)Nc4cccc(C)c4)C[C@@H](C2)O3)cc1	852 s

Structure (SMILES)	RP-LC retention time
Cc1ccc(-c2noc(C3CCCN3S(=O)(=O)c3ccc(C(C)(C)C)cc3)n2)cc1 (stereo not drawn)	788 s
O=C(Cc1csc2nc(-c3ccccc3)cn12)Nc1ccc(Br)cc1F	883 s
Cc1nc(OCC(=O)Nc2ccc(F)cc2F)c2ccccc2n1	742 s
Cc1ccc(Cn2c(=O)n(CCNC(=O)C(C)C)c3ncccc32)cc1	769 s
O=C(Cc1ccsc1)N1CCC2(CC1)N=C(c1ccc(Cl)cc1)NO2	865 s
O=C(CSCC(=O)c1ccccc1)c1ccccc1	880 s
CC(=O)Nc1ccc(CCc2nc3ccc(C(=O)NCCC4=CCCCC4)cc3[nH]2)cc1	669 s
CC(C)c1ccc(NC(=O)C2CCN(S(=O)(=O)c3cc(C(=O)N(C)C)cs3)CC2)cc1	958 s
CCOC(CNCc1cc(C)c2[nH]c3ccccc3c2c1C)OCC	812 s
CCCC(NC(=O)c1cccs1)C(=O)Nc1nc2ccccc2[nH]1 (stereo not drawn)	668 s
Cn1c(CN2CCN(C(=O)COc3ccc(F)cc3)CC2)nc2ccccc21	581 s
Cc1ccc(CN2CCN(CC(=O)N3CCN(Cc4ccccc4)CC3)C(=O)C2=O)cc1	640 s
COCCO[C@H]1C(=O)N(C2CCN(S(=O)(=O)C(C)C)CC2)[C@H]1c1ccncc1	572 s
O=C(OCn1nnc2ccccc2c1=O)c1ccc(S(=O)(=O)N2CCCCC2)cc1	936 s
Cc1onc(-c2ccccc2Cl)c1C(=O)Nn1cnc2c(cnn2C(C)(C)C)c1=O	864 s
COc1ccc(CNC(=O)c2cnc3c(c2)c(=O)n(C)c(=O)n3-c2ccc(OC)cc2)cc1	841 s
O=C(Cc1csc(-c2ccccc2F)n1)NCCc1c[nH]c2ccccc12	904 s
CCCN1CCN(C(=O)C2=NN(c3ccc(C)cc3)c3ncccc3S2(=O)=O)CC1	643 s
COc1ccc(-c2cc3nn(CC(=O)Nc4ccc(Cl)cc4)c(=O)n3c(C)n2)cc1	974 s
Cn1ccnc1C(=O)N1CC(n2cc(COc3ccc(F)cc3)nn2)C1	715 s
O=C(c1cccc(-c2nccnc2N2CCCC2)c1)N1CCN(c2ccccc2)CC1	972 s
CS(=O)(=O)N1CCN(C(=O)Cc2csc(Nc3ncccn3)n2)CC1	601 s
